We go through seven compounds from US4172145A, “Benzo(b)furylacetic acid derivatives to reduce inflammation” (priority 1975, dated 1979).

Read-outs that look alike come from different tables or passages of the source.

The conditions of data set [1]: Eur. J. Med. Chem. 1975-10, N. 2, p. 182-186; cited from earlier work.
The conditions of data set [2]: Eur. J. Med. Chem. 1975-10, N. 2, p. 182-186; cited from earlier work. The source holds these as a separate data set.
The subject of data set [3] is pain threshold of inflamed and not inflamed paws of rats. In words: Analgesic activity in rats (Randall-Selitto Method). The class given is in vivo, rat (male Wister strain). The conditions noted are these: Rattus norvegicus, po, P.O. 150 mg/kg, read-out: Analgesic Coefficient. The procedure: A group consisting of 6-7 rats (male Wister strain; weight: 100-120 g) was used for the test and control groups in this test. Each rat of both groups was treated with 0.1 ml of a 1% carrageenin solution as phlogistic agent by subcutaneous injection in one hind paw. 3 hours after the administration, pressure was applied to the treated paw of each rat by means of a pressing device (manufactured by Ugobasile S. A., Italy). The threshold of pain induced by press was measured with reference to the shriek and struggle according to the method of Randall and Selitto [Randall, L. O. and Selitto, J. J.; Arch, Int. Pharmocodyn., 111, 409 (1957)]. From each group 5 rats having a good response reaction, i.e. the pain threshold was not more than 70 g, were respectively selected. […] 1, 2 and 3 hours after administration, pressure was again applied to both the inflamed and not inflamed paws of the test rats and the pain threshold was measured. On the other hand, without the administration of the active compound, the pressure was applied to both the inflamed and not inflamed paws of the selected 5 rats of the control group and the pain threshold was measured. The inflamed paws of the test and control groups were compared with each other. Also the not inflamed paws of the both groups were compared with each other.
The analgesic coefficient was calculated by means of the following equation, and the larger analgesic coefficient the better analgesic activity. [formula] in which X: analgesic coefficient (%)
P1 : threshold (g) of the test rats administered with active compounds
P2 : threshold (g) of the control rats without administration of active compound

A short description of data set [4]: in vivo. To be noted: rat, po. Here is the method: A test group consisting of 10-15 rats (male Wistar strain; weight: 180-220 g) was used in this test. Each rat was fasted for 20 hours, but water was allowed ad libitum. The compounds shown in Table 5 were administered orally. After a 20-hour interval during which the rats were not fed but were allowed water, each rat was administered under ether anesthesia with 0.5 ml per 100 g body weight of a 5% solution of pontamine sky blue 6BX in saline (pH 7.2--adjusted with 0.5 N HCl) by intravenous injection. 15 minutes after administration each rat was killed. The stomach was removed and maintained in a 1% formalin solution. After about 2 hours, the stomach was opened along the greater curvature and the length of lesions (dark blue areas against pale blue background) in the glandular portion was measured under a dissecting microscope (10×) provided with a square grid. The sum of the lengths (mm) of lesions was used as ulcer index.

Data set [5] deals with carrageenin-induced edema on the hind paw of rats. In words: Anti-edema effect on carrageenin-induced edema on the hind paw of rats (Carrageenin Edema Method). The class given is in vivo, rat (male Wistar strain). The conditions noted are these: rat, oral, 3 hours after carrageenin; for inhibition in vivo at 75 mg/kg / inhibition in vivo at 150 mg/kg / inhibition in vivo at 300 mg/kg: read-out: Anti-edema Effect, Suppression Ratio. The procedure: The anti-edema effect was determined according to the method of Yamazaki et al [Yamazaki, H., et al; Folia Pharmacologica Japonica, 63, 302 (1967)].
In this test, a group consisting of five rats (male Wistar strain: weight 100-120 g) was used for the test and control groups. The compounds shown in Table 2 were administered orally to the rats of the test group. After one hour, 0.1 ml of a 1% carrageenin solution (phlogistic agent) was further administered to each rat by subcutaneous injection in one hind paw. To each rat of the control group, 0.1 ml of a 1% carrageenin solution was also administered in a similar manner to that for test rats. 1, 3 and 5 hours after administration of the phlogistic agent, the swelling ratio was calculated by means of the following equation: […]
Test group [formula] in which b: swelling ratio
B: volume of a hind paw without administration of phlogistic agent
B': volume of a hind paw administered with phlogistic agent
Control group [formula] in which a: swelling ratio
A: volume of a hind paw without administration of phlogistic agent
A': volume of a hind paw administered with phlogistic agent
The anti-edema effect was expressed as the suppression ratio of the edema in comparison with the control group to which the test compound had not been administered. The suppression ratio of the edema was determined 3 hours after administration of the phlogistic agent and was calculated by means of the following equation: [formula] in which a and b are as hereinbefore defined.
(In general: The carrageenan paw model is a standard test of acute inflammation.)

Data set [6] in a line: in vivo. To be noted: oral, observed one week, Litchfield and Wilcoxon. The procedure: In this test, five groups, each consisting of 5 mice (male dd strain; weight: 19-21 g) and 5 rats (male Wistar strain; weight: 100-120 g) were used. […] The LD50 was calculated according to the method of Litchfield and Wilcoxon [Journal of Pharmacol. and Exper. Therap.
Data set [7] relates to acetic acid-induced writhing reactions in mice. In words: Analgesic activity in mice (AcOH Writhing Method). The class given is in vivo, mouse (male dd-strain). To be noted: mouse, oral; for inhibition in vivo at 150 mg/kg / inhibition in vivo at 300 mg/kg: 1 h before acetic acid, read-out: Analgesic Effect (AcOH Writhing Method), Suppression Ratio; for ED50: read-out: Analgesic Effect (AcOH Writhing Method), ED50. The procedure: In this test, three groups, each consisting of 10 mice (male dd-strain; weight: 19-21 g) were used. The compounds shown in Table 3 were administered orally to the test mice. One hour after the administration, the mice were treated with 0.1 ml/10 g of 0.7% acetic acid solution in physiological saline by intraperitoneal injection according to the method of Koster et al [Koster, R., et al; Fed. Proc., 18, 412 (1959)]. Ten minutes after the treatment, the number of writhing reactions occurring in the mice was counted.
(In general: An intraperitoneal irritant provokes the stretching counted in writhing tests.)

The mark [8] stands for this setting: mouse, read-out: Acute Toxicity (P.O.), LD50, Mouse.
The mark [9] stands for this setting: rat, read-out: Acute Toxicity (P.O.), LD50, Rat.

As for `O=C(O)Cc1cc2cc(Cl)ccc2o1` [chloro-5 benzoful-2-acetate], the “anti-inflammatory activity versus phenylbutazone” value in data set [1] was “lower anti-inflammatory activity”. The toxicity versus phenylbutazone entry in data set [2] was “minor toxicity than phenylbutazone”.
With `COc1ccc2oc(CC(=O)O)cc2c1` [methoxy-5 benzo(b)furyl-2-acetate], in data set [1], the “anti-inflammatory activity versus phenylbutazone” value was “lower anti-inflammatory activity”. For the same compound, the toxicity versus phenylbutazone result in data set [2] is “minor toxicity than phenylbutazone”.
By ED50 is commonly meant the dose that gives a 50% effect, or the effect in half of the subjects. For orientation: LD50 means the dose at which mortality reaches 50%. Take `Cc1ccc2oc(CC(=O)O)c(C)c2c1` [Test Compound 4, 3,5-dimethyl-2-benzo(b)furylacetic acid]: the change in vivo at 150 mg/kg in data set [3] (1 h, inflamed paw, 1 hr.) was determined as 35.4%; in data set [3] (1 h, not inflamed paw, 1 hr.) it was 0%; in data set [3] (2 h, inflamed paw, 2 hr.), 18.8%; in data set [3] (2 h, not inflamed paw, 2 hr.), 0%; in data set [3] (3 h, inflamed paw, 3 hr.), 7.1%; in data set [3] (3 h, not inflamed paw, 3 hr.), 0%. The compound also came in with a TD50 at 20 h in “in vivo [4]” of over 300 mg/kg. Also, in data set [5], the inhibition in vivo at 75 mg/kg worked out at 43.8%. In addition, the figures for the inhibition in vivo at 150 mg/kg in data set [5] and in data set [7] were 56.2% and 11.2%, respectively. For the same compound, the inhibition in vivo at 300 mg/kg in data set [5] is 70.9%; in data set [7], 41.4%. Further, the ED50 in data set [5] is 100 mg/kg; in data set [7], 350 mg/kg. The values for the median lethal dose (LD50) at 168 h in the data set “in vivo [6]” (setting [8]) and in “in vivo [6]” (setting [9]) were 1310 mg/kg and over 1000 mg/kg, respectively.
`Cc1c(CC(=O)O)oc2ccc(F)cc12` [Test Compound 5, 5-fluoro-3-methyl-2-benzo(b)furylacetic acid]: the change in vivo at 150 mg/kg in data set [3] (1 h, inflamed paw, 1 hr.) was 38.6%; in data set [3] (1 h, not inflamed paw, 1 hr.), 0%; in data set [3] (2 h, inflamed paw, 2 hr.), 23.5%; in data set [3] (2 h, not inflamed paw, 2 hr.), 0%; in data set [3] (3 h, inflamed paw, 3 hr.), 19.3%; in data set [3] (3 h, not inflamed paw, 3 hr.), 0%. This compound also had a TD50 at 20 h in “in vivo [4]” of over 300 mg/kg. For the same compound, the inhibition in vivo at 75 mg/kg in data set [5] was determined as 37.9%. Besides, the inhibition in vivo at 150 mg/kg in data set [5] turned out to be 60%; in data set [7], 26%. Besides, the inhibition in vivo at 300 mg/kg in data set [5] turned out to be 71.9%; in data set [7], 41.4%. The ED50 in data set [5] was 105 mg/kg; in data set [7], 380 mg/kg. The median lethal dose (LD50) at 168 h in the data set “in vivo [6]” (setting [8]) was 1750 mg/kg; in the data set “in vivo [6]” (setting [9]), over 1000 mg/kg.
On to `O=C(O)c1cc2cc(Cl)ccc2o1` [chloro-5-benzo(b)furyl-2 carboxylic acid], for which the “anti-inflammatory activity versus phenylbutazone” value in data set [1] was “lower anti-inflammatory activity”. In data set [2], the toxicity versus phenylbutazone result is on record as “minor toxicity than phenylbutazone”.
In the case of `COc1ccc2oc(CC(=O)O)c(C)c2c1` [Test Compound 3, 5-methoxy-3-methyl-2-benzo(b)furylacetic acid], the change in vivo at 150 mg/kg was determined as 24.1% in data set [3] (1 h, inflamed paw, 1 hr.); 1.9% in data set [3] (1 h, not inflamed paw, 1 hr.); 5.2% in data set [3] (2 h, inflamed paw, 2 hr.); 0% in data set [3] (2 h, not inflamed paw, 2 hr.); 0% in data set [3] (3 h, inflamed paw, 3 hr.); 0% in data set [3] (3 h, not inflamed paw, 3 hr.). The same compound displayed a TD50 at 20 h in “in vivo [4]” of over 300 mg/kg. The inhibition in vivo at 75 mg/kg in data set [5] worked out at 34.5%. For the same compound, the inhibition in vivo at 150 mg/kg in data set [5] came out at 60.8%; in data set [7] it was 20.8%. In addition, the inhibition in vivo at 300 mg/kg stood at 73.1% in data set [5] and 53.6% in data set [7]. Also, the 50% effective dose (ED50) in data set [5] turned out to be 110 mg/kg; in data set [7] it was 280 mg/kg. The median lethal dose (LD50) at 168 h was 1110 mg/kg in the data set “in vivo [6]” (setting [8]) and over 1000 mg/kg in “in vivo [6]” (setting [9]).
For `Cc1c(CC(=O)O)oc2ccc(Cl)cc12` [Test Compound 2, 5-chloro-3-methyl-2-benzo(b)furylacetic acid], the change in vivo at 150 mg/kg was found to be 25.1% in data set [3] (1 h, inflamed paw, 1 hr.); 0.5% in data set [3] (1 h, not inflamed paw, 1 hr.); 17.8% in data set [3] (2 h, inflamed paw, 2 hr.); 1.3% in data set [3] (2 h, not inflamed paw, 2 hr.); 16.3% in data set [3] (3 h, inflamed paw, 3 hr.); 2.4% in data set [3] (3 h, not inflamed paw, 3 hr.). For the same compound, in the data set “in vivo [4]”, the TD50 at 20 h was 230 mg/kg. The inhibition in vivo at 75 mg/kg in data set [5] came out at 45.7%. In addition, the inhibition in vivo at 150 mg/kg stood at 63.3% in data set [5] and 35.9% in data set [7]. Further, the inhibition in vivo at 300 mg/kg is 74.2% in data set [5] and 68.8% in data set [7]. Also, the ED50 in data set [5] was determined as 980 mg/kg; in data set [7], 190 mg/kg. For the same compound, the median lethal dose (LD50) at 168 h in “in vivo [6]” (setting [8]) amounted to 800 mg/kg; in “in vivo [6]” (setting [9]), 425 mg/kg.
